According to ChEMBL document CHEMBL1151551, “An acid-cleavable linker stable at neutral pH that releases doxorubicin at lysosomal pH” (Bioorg Med Chem Lett, 1993):

Experiments:
[1] = organism: Mus musculus; assay: The compound was evaluated for half life (release of DOX) […] at 37 degree Celsius at the pH 7.; type: ADME
[2] = organism: Mus musculus; assay: The compound was evaluated for half life (release of DOX) […] at 37 degree Celsius at the pH 5.; type: ADME

| T1/2 [1] | T1/2 [2] | SMILES |
| --- | --- | --- |
| > 160 days | 90 h | CCCCNC(=O)C1(C)CC(C)(C(=O)O)CC(C)(C(=O)NC2CC(O[C@H]3C[C@](O)(C(=O)CO)Cc4c(O)c5c(c(O)c43)C(=O)c3c(OC)cccc3C5=O)OC(C)C2O)C1 (some centres not stated) |
| > 174 days | > 174 h | CCCCN(C)C(=O)C1(C)CC(C)(C(=O)O)CC(C)(C(=O)N(C(=O)C(F)(F)F)C2CC(O[C@H]3C[C@](O)(C(=O)CO)Cc4c(O)c5c(c(O)c43)C(=O)c3c(OC)cccc3C5=O)OC(C)C2O)C1 (some centres not stated) |
|  | 30 h | COc1cccc2c1C(=O)c1c(O)c3c(c(O)c1C2=O)C[C@@](O)(C(=O)CO)C[C@@H]3OC1CC(NC(=O)C2(C)CC(C)(C(=O)O)CC(C)(C(=O)O)C2)C(O)C(C)O1 (some centres not stated) |
| > 100 days | 40 h | COC(=O)C1(C)CC(C)(C(=O)O)CC(C)(C(=O)NC2CC(O[C@H]3C[C@](O)(C(=O)CO)Cc4c(O)c5c(c(O)c43)C(=O)c3c(OC)cccc3C5=O)OC(C)C2O)C1 (some centres not stated) |
